Measured values as given in patent US20160002248A1, “GLS1 INHIBITORS FOR TREATING DISEASE” (Board of Regents, The University of Texas System, priority 2014, published 2016).

Experiments:
A549 cells = experiment: Proliferation Assay (A549 cell viability, Cell Titer Fluor); type: cell-based; conditions: Homo sapiens, 72 hours
Method: A549 cells were routinely maintained in RPMI 1640 media (Gibco catalog number 11875-093) supplemented with 10% dialyzed fetal bovine serum using a humidified incubator (37° C., 5% CO2 and ambient O2). In preparation for the viability assay, cells were inoculated into 384-well black CulturPlates (Perkin Elmer) at a density of 1000 cells/well in a volume of 40 uL. Following a 24-hour incubation at 37° C., 5% CO2 and ambient O2, cells were treated with compound (10 uL) in a final DMSO concentration of 0.5% (v/v). The microplates were then incubated for 72 hours (37° C., 5% CO2 and ambient O2). Cell Titer Fluor (Promega) was subsequently added (10 uL of 6× reagent) and mixed for 15 minutes at room temperature. The plates were then incubated for 30 minutes (37° C., 5% CO2 and ambient O2) and fluorescence was subsequently read on the Perkin Elmer Envision plate reader. EC50 values were calculated using a four-parameter logistic curve fit.

[1] = biological target: T1, purified recombinant human GAC (GLS1) (Homo sapiens, UniProt O94925); experiment: GLS1 Enzymatic Activity Assay (dual-coupled enzymatic assay); type: biochemical
T1 sequence (O94925 55-598 isoform O94925-3 limits assumed): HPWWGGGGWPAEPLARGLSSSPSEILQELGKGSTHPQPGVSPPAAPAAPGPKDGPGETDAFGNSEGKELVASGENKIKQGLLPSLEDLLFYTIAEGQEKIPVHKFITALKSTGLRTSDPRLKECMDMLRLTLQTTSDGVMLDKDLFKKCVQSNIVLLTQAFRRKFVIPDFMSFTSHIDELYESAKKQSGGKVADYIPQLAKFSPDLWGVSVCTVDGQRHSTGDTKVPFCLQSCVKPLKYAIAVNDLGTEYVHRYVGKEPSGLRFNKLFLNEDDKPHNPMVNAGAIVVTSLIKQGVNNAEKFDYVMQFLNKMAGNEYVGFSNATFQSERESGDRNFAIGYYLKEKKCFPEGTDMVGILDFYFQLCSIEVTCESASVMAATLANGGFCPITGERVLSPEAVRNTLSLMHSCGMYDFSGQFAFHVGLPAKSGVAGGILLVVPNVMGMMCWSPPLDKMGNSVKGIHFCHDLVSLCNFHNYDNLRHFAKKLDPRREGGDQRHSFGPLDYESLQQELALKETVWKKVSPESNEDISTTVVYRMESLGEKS
Method: GLS1 Enzymatic Activity Assay
The inhibition of purified recombinant human GAC by varying concentrations of inhibitors is assessed via a dual-coupled enzymatic assay. The glutamate produced by the glutaminase reaction is used by glutamate oxidase to produce α-ketoglutarate, ammonia, and hydrogen peroxide, with this hydrogen peroxide subsequently being used by horseradish peroxidase to produce resorufin in the presence of Amplex UltraRed. The assay buffer consisted of 50 mM Hepes (pH 7.4), 0.25 mM EDTA and 0.1 mM Triton X-100. GAC was incubated with potassium phosphate (10 minutes at room temperature) prior to incubation with inhibitor (10 minutes at room temperature). The final reaction conditions were as follows: 2 nM GAC, 50 mM potassium phosphate, 100 mU/mL glutamate oxidase (Sigma), 1 mM glutamine (Sigma), 100 mU/mL horseradish peroxidase (Sigma), 75 μM Amplex UltraRed (Life Technologies), and 1% (v/v) DMSO. The production of resorufin was monitored on a Perkin Elmer Envision plate reader (excitation 530 nm, emission 590 nm) either in a kinetics or endpoint mode (at 20 minutes). IC50 values were calculated using a four-parameter logistic curve fit.

SMILES | EC50 (A549 cells) | IC50 [1]
Cn1cc(CNC(=O)c2cn(CCCCc3cc4cc(C5CC5)[nH]c4nn3)nn2)cn1 [Example 51, 1-(4-{6-cyclopropyl-7H-pyrrolo[2,3-c]pyridazin-3-yl}butyl)-N-[(1-methyl-1H-pyrazol-4-yl)methyl]-1H-1,2,3-triazole-4-carboxamide] | 0.5 to 5 µM | 100 to 500 nM
Cn1ccc(CNC(=O)c2cn(CCCCc3cc4cc(C5CC5)[nH]c4nn3)nn2)n1 [Example 52, 1-(4-{6-cyclopropyl-7H-pyrrolo[2,3-c]pyridazin-3-yl}butyl)-N-[(1-methyl-1H-pyrazol-3-yl)methyl]-1H-1,2,3-triazole-4-carboxamide] | 0.5 to 5 µM | 100 to 500 nM
N#Cc1ccc(CNC(=O)c2cn(CCCCc3cc4cc(C5CC5)[nH]c4nn3)nn2)cn1 [Example 53, N-[(6-cyanopyridin-3-yl)methyl]-1-(4-{6-cyclopropyl-7H-pyrrolo[2,3-c]pyridazin-3-yl}butyl)-1H-1,2,3-triazole-4-carboxamide] | 0.5 to 5 µM | 100 to 500 nM
Cn1ccnc1CNC(=O)c1cn(CCCCc2cc3cc(C4CC4)[nH]c3nn2)nn1 [Example 54, 1-(4-{6-cyclopropyl-7H-pyrrolo[2,3-c]pyridazin-3-yl}butyl)-N-[(1-methyl-1H-imidazol-2-yl)methyl]-1H-1,2,3-triazole-4-carboxamide] | > 5 µM | 500 to 5000 nM
Cc1cccc(CNC(=O)c2cn(CCCCc3cc4cc(C5CC5)[nH]c4nn3)nn2)n1 [Example 55, 1-(4-{6-cyclopropyl-7H-pyrrolo[2,3-c]pyridazin-3-yl}butyl)-N-[(6-methylpyridin-2-yl)methyl]-1H-1,2,3-triazole-4-carboxamide] | 0.5 to 5 µM | 100 to 500 nM
Cc1ccc(CNC(=O)c2cn(CCCCc3cc4cc(C5CC5)[nH]c4nn3)nn2)nc1 [Example 56, 1-(4-{6-cyclopropyl-7H-pyrrolo[2,3-c]pyridazin-3-yl}butyl)-N-[(5-methylpyridin-2-yl)methyl]-1H-1,2,3-triazole-4-carboxamide] | 0.5 to 5 µM | 100 to 500 nM

The next lines start with the values.

EC50 (A549 cells) | IC50 [1] | SMILES
0.5 to 5 µM | 100 to 500 nM | Cn1cnc(CNC(=O)c2cn(CCCCc3cc4cc(C5CC5)[nH]c4nn3)nn2)c1 [Example 45, 1-(4-{6-cyclopropyl-7H-pyrrolo[2,3-c]pyridazin-3-yl}butyl)-N-[(1-methyl-1H-imidazol-4-yl)methyl]-1H-1,2,3-triazole-4-carboxamide]
0.5 to 5 µM | < 100 nM | Cc1cncc(CNC(=O)c2cn(CCCCc3cc4cc(C5CC5)[nH]c4nn3)nn2)c1 [Example 46, 1-(4-{6-cyclopropyl-7H-pyrrolo[2,3-c]pyridazin-3-yl}butyl)-N-[(5-methylpyridin-3-yl)methyl]-1H-1,2,3-triazole-4-carboxamide]
0.5 to 5 µM | 100 to 500 nM | Cc1ccncc1CNC(=O)c1cn(CCCCc2cc3cc(C4CC4)[nH]c3nn2)nn1 [Example 47, 1-(4-{6-cyclopropyl-7H-pyrrolo[2,3-c]pyridazin-3-yl}butyl)-N-[(4-methylpyridin-3-yl)methyl]-1H-1,2,3-triazole-4-carboxamide]
0.5 to 5 µM | < 100 nM | COc1cncc(CNC(=O)c2cn(CCCCc3cc4cc(C5CC5)[nH]c4nn3)nn2)c1 [Example 48, 1-(4-{6-cyclopropyl-7H-pyrrolo[2,3-c]pyridazin-3-yl}butyl)-N-[(5-methoxypyridin-3-yl)methyl]-1H-1,2,3-triazole-4-carboxamide]
0.5 to 5 µM | 500 to 5000 nM | COc1ncccc1CNC(=O)c1cn(CCCCc2cc3cc(C4CC4)[nH]c3nn2)nn1 [Example 49, 1-(4-{6-cyclopropyl-7H-pyrrolo[2,3-c]pyridazin-3-yl}butyl)-N-[(2-methoxypyridin-3-yl)methyl]-1H-1,2,3-triazole-4-carboxamide]
0.5 to 5 µM | 100 to 500 nM | Cc1cc(CNC(=O)c2cn(CCCCc3cc4cc(C5CC5)[nH]c4nn3)nn2)nn1C [Example 50, 1-(4-{6-cyclopropyl-7H-pyrrolo[2,3-c]pyridazin-3-yl}butyl)-N-[(1,5-dimethyl-1H-pyrazol-3-yl)methyl]-1H-1,2,3-triazole-4-carboxamide]
